Experimental data reported in US10961231B2, “NTCP inhibitors” (National Institute of Biological Sciences, Beijing, priority 2018, dated 2021).

Each molecule was assayed against T1, NTCP (Homo sapiens, UniProt Q14973) (assay: [3H]-TCA uptake assay (NTCP inhibition)). Conditions: IC50, given as a range, marked * (asterisk not explained).
T1 sequence (Q14973 1-349): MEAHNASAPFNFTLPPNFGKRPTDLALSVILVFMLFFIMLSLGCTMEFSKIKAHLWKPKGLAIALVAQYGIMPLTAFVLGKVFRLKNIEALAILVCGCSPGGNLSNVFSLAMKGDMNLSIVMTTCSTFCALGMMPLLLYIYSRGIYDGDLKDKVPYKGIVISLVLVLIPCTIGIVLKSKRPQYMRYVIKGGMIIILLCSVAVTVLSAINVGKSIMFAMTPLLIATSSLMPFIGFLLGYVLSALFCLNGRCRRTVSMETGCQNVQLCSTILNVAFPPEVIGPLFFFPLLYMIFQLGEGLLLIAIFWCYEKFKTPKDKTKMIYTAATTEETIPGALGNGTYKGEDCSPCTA
Format: cell-based
How it was run: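 PTH and HepG2-NTCP cells kept 24 h in PMM to induce NTCP, then exposed 2 h to test compounds or DMSO. Uptake of 1 μM [3H]-taurocholate in Na+ Ringer's buffer (145 mM Na) ran 15 min at 37° C. Cells washed, lysed in 1% Triton X-100, and radioactivity counted by liquid scintillation.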
CCC1NC(=O)C(C2OC(Oc3cccc(O)c3)CC2C)N(C)C(=O)C(C(C)C)N(C)C(=O)C(CC(C)C)N(C)C(=O)C(CC(C)C)N(C)C(=O)C(C)NC(=O)C(C)NC(=O)C(CC(C)C)N(C)C(=O)C(C(C)C)NC(=O)C(CC(C)C)N(C)C(=O)CN(C)C1=O (stereo not shown) [Compound 25A-o] was tested, and the IC50 was 1 to 100 µM. For CCC1NC(=O)C(C2OC(Oc3ccc(OC)cc3)CC2C)N(C)C(=O)C(C(C)C)N(C)C(=O)C(CC(C)C)N(C)C(=O)C(CC(C)C)N(C)C(=O)C(C)NC(=O)C(C)NC(=O)C(CC(C)C)N(C)C(=O)C(C(C)C)NC(=O)C(CC(C)C)N(C)C(=O)CN(C)C1=O (stereo not shown) [Compound 26A-o], the IC50 was 1 to 100 µM. Molecule CCOc1ccc(OC2CC(C)C(C3C(=O)NC(CC)C(=O)N(C)CC(=O)N(C)C(CC(C)C)C(=O)NC(C(C)C)C(=O)N(C)C(CC(C)C)C(=O)NC(C)C(=O)NC(C)C(=O)N(C)C(CC(C)C)C(=O)N(C)C(CC(C)C)C(=O)N(C)C(C(C)C)C(=O)N3C)O2)cc1 (stereo not shown) [Compound 27A-o] has an IC50 of 1 to 100 µM. With CCC1NC(=O)C(C2OC(Oc3cccc(OC)c3)CC2C)N(C)C(=O)C(C(C)C)N(C)C(=O)C(CC(C)C)N(C)C(=O)C(CC(C)C)N(C)C(=O)C(C)NC(=O)C(C)NC(=O)C(CC(C)C)N(C)C(=O)C(C(C)C)NC(=O)C(CC(C)C)N(C)C(=O)CN(C)C1=O (stereo not shown) [Compound 28A-o] the IC50 was 1 to 100 µM. In the case of CCOc1cccc(OC2CC(C)C(C3C(=O)NC(CC)C(=O)N(C)CC(=O)N(C)C(CC(C)C)C(=O)NC(C(C)C)C(=O)N(C)C(CC(C)C)C(=O)NC(C)C(=O)NC(C)C(=O)N(C)C(CC(C)C)C(=O)N(C)C(CC(C)C)C(=O)N(C)C(C(C)C)C(=O)N3C)O2)c1 (stereo not shown) [Compound 29A-o], the IC50 is reported as 1 to 100 µM. For CCC1NC(=O)C(C2OC(Oc3cccc(OC(C)C)c3)CC2C)N(C)C(=O)C(C(C)C)N(C)C(=O)C(CC(C)C)N(C)C(=O)C(CC(C)C)N(C)C(=O)C(C)NC(=O)C(C)NC(=O)C(CC(C)C)N(C)C(=O)C(C(C)C)NC(=O)C(CC(C)C)N(C)C(=O)CN(C)C1=O (stereo not shown) [Compound 30A-6], the IC50 was 1 to 100 µM. CCCOc1cccc(OC2CC(C)C(C3C(=O)NC(CC)C(=O)N(C)CC(=O)N(C)C(CC(C)C)C(=O)NC(C(C)C)C(=O)N(C)C(CC(C)C)C(=O)NC(C)C(=O)NC(C)C(=O)N(C)C(CC(C)C)C(=O)N(C)C(CC(C)C)C(=O)N(C)C(C(C)C)C(=O)N3C)O2)c1 (stereo not shown) [Compound 31A-o] showed an IC50 of 1 to 100 µM. For CCC1NC(=O)C(C2OC(Oc3cccc(OCC4CC4)c3)CC2C)N(C)C(=O)C(C(C)C)N(C)C(=O)C(CC(C)C)N(C)C(=O)C(CC(C)C)N(C)C(=O)C(C)NC(=O)C(C)NC(=O)C(CC(C)C)N(C)C(=O)C(C(C)C)NC(=O)C(CC(C)C)N(C)C(=O)CN(C)C1=O (stereo not shown) [Compound 32A-o], the IC50 was 1 to 100 µM. CCC1NC(=O)C(C2OC(Oc3cccc(OCC4CCOCC4)c3)CC2C)N(C)C(=O)C(C(C)C)N(C)C(=O)C(CC(C)C)N(C)C(=O)C(CC(C)C)N(C)C(=O)C(C)NC(=O)C(C)NC(=O)C(CC(C)C)N(C)C(=O)C(C(C)C)NC(=O)C(CC(C)C)N(C)C(=O)CN(C)C1=O (stereo not shown) [Compound 33A-o] showed an IC50 of 1 to 100 µM.

Same assay, conditions: given as a range, marked * (asterisk not explained)
For CCC1NC(=O)C(C2OC(Oc3cccc(OCc4ccc(F)cc4Cl)c3)CC2C)N(C)C(=O)C(C(C)C)N(C)C(=O)C(CC(C)C)N(C)C(=O)C(CC(C)C)N(C)C(=O)C(C)NC(=O)C(C)NC(=O)C(CC(C)C)N(C)C(=O)C(C(C)C)NC(=O)C(CC(C)C)N(C)C(=O)CN(C)C1=O (stereo not shown) [Compound 23A-o], the IC50 was 1 to 100 µM. In the case of CCC1NC(=O)C(C2OC(Oc3cccc(OCc4ccc(F)cc4C)c3)CC2C)N(C)C(=O)C(C(C)C)N(C)C(=O)C(CC(C)C)N(C)C(=O)C(CC(C)C)N(C)C(=O)C(C)NC(=O)C(C)NC(=O)C(CC(C)C)N(C)C(=O)C(C(C)C)NC(=O)C(CC(C)C)N(C)C(=O)CN(C)C1=O (stereo not shown) [Compound 24A-o], the IC50 is reported as 1 to 100 µM.

Same assay, conditions: given as a range; assay not given
CCC1NC(=O)C(C2OC(Sc3cccc(OCc4ccc(F)cc4C)c3)CC2C)N(C)C(=O)C(C(C)C)N(C)C(=O)C(CC(C)C)N(C)C(=O)C(CC(C)C)N(C)C(=O)C(C)NC(=O)C(C)NC(=O)C(CC(C)C)N(C)C(=O)C(C(C)C)NC(=O)C(CC(C)C)N(C)C(=O)CN(C)C1=O [Compound 24A, [2-((2R,3R)-5-(3-(4-fluoro-2-methylbenzyloxy)phenylthio)-3-methyltetrahydrofuran-2-yl)-2-(methylamino)acetic acid]^1-cyclosporin A] was tested, and the IC50 was 0.001 to 1 µM. CCC1NC(=O)C(C2OC(Sc3cccc(O)c3)CC2C)N(C)C(=O)C(C(C)C)N(C)C(=O)C(CC(C)C)N(C)C(=O)C(CC(C)C)N(C)C(=O)C(C)NC(=O)C(C)NC(=O)C(CC(C)C)N(C)C(=O)C(C(C)C)NC(=O)C(CC(C)C)N(C)C(=O)CN(C)C1=O [Compound 25A, [2-((2R,3R)-5-(3-hydroxyphenylthio)-3-methyltetrahydrofuran-2-yl)-2-(methylamino)acetic acid]^1-cyclosporine A] was tested, and the IC50 was 0.001 to 1 µM. CCC1NC(=O)C(C2OC(Sc3ccc(OC)cc3)CC2C)N(C)C(=O)C(C(C)C)N(C)C(=O)C(CC(C)C)N(C)C(=O)C(CC(C)C)N(C)C(=O)C(C)NC(=O)C(C)NC(=O)C(CC(C)C)N(C)C(=O)C(C(C)C)NC(=O)C(CC(C)C)N(C)C(=O)CN(C)C1=O [Compound 26A, [2-((2R,3R)-5-(4-methoxyphenylthio)-3-methyltetrahydrofuran-2-yl)-2-(methylamino)acetic acid]^1-cyclosporin A] was tested, and the IC50 was 0.001 to 1 µM. CCOc1ccc(SC2CC(C)C(C3C(=O)NC(CC)C(=O)N(C)CC(=O)N(C)C(CC(C)C)C(=O)NC(C(C)C)C(=O)N(C)C(CC(C)C)C(=O)NC(C)C(=O)NC(C)C(=O)N(C)C(CC(C)C)C(=O)N(C)C(CC(C)C)C(=O)N(C)C(C(C)C)C(=O)N3C)O2)cc1 [Compound 27A, [2-((2R,3R)-5-(4-ethoxyphenylthio)-3-methyltetrahydrofuran-2-yl)-2-(methylamino)acetic acid]^1-cyclosporin A] showed an IC50 of 0.001 to 1 µM. Work on CCC1NC(=O)C(C2OC(Sc3cccc(OC)c3)CC2C)N(C)C(=O)C(C(C)C)N(C)C(=O)C(CC(C)C)N(C)C(=O)C(CC(C)C)N(C)C(=O)C(C)NC(=O)C(C)NC(=O)C(CC(C)C)N(C)C(=O)C(C(C)C)NC(=O)C(CC(C)C)N(C)C(=O)CN(C)C1=O [Compound 28A, [2-((2R,3R)-5-(3-methoxyphenylthio)-3-methyltetrahydrofuran-2-yl)-2-(methylamino)acetic acid]^1-cyclosporin A] yielded an IC50 of 0.001 to 1 µM. CCOc1cccc(SC2CC(C)C(C3C(=O)NC(CC)C(=O)N(C)CC(=O)N(C)C(CC(C)C)C(=O)NC(C(C)C)C(=O)N(C)C(CC(C)C)C(=O)NC(C)C(=O)NC(C)C(=O)N(C)C(CC(C)C)C(=O)N(C)C(CC(C)C)C(=O)N(C)C(C(C)C)C(=O)N3C)O2)c1 [Compound 29A, [2-((2R,3R)-5-(3-ethoxyphenylthio)-3-methyltetrahydrofuran-2-yl)-2-(methylamino)acetic acid]^1-cyclosporin A] was tested, and the IC50 was 0.001 to 1 µM. Work on CCC1NC(=O)C(C2OC(Sc3cccc(OC(C)C)c3)CC2C)N(C)C(=O)C(C(C)C)N(C)C(=O)C(CC(C)C)N(C)C(=O)C(CC(C)C)N(C)C(=O)C(C)NC(=O)C(C)NC(=O)C(CC(C)C)N(C)C(=O)C(C(C)C)NC(=O)C(CC(C)C)N(C)C(=O)CN(C)C1=O [Compound 30A, [2-((2R,3R)-5-(3-isopropoxyphenylthio)-3-methyltetrahydrofuran-2-yl)-2-(methylamino)acetic acid]^1-cyclosporin] yielded an IC50 of 0.001 to 1 µM. Molecule CCCOc1cccc(SC2CC(C)C(C3C(=O)NC(CC)C(=O)N(C)CC(=O)N(C)C(CC(C)C)C(=O)NC(C(C)C)C(=O)N(C)C(CC(C)C)C(=O)NC(C)C(=O)NC(C)C(=O)N(C)C(CC(C)C)C(=O)N(C)C(CC(C)C)C(=O)N(C)C(C(C)C)C(=O)N3C)O2)c1 [Compound 31A, [2-((2R,3R)-3-methyl-5-(3-propoxyphenylthio)tetrahydrofuran-2-yl)-2-(methylamino)acetic acid]^1-cyclosporin A] has an IC50 of 0.001 to 1 µM. Molecule CCC1NC(=O)C(C2OC(Sc3cccc(OCC4CC4)c3)CC2C)N(C)C(=O)C(C(C)C)N(C)C(=O)C(CC(C)C)N(C)C(=O)C(CC(C)C)N(C)C(=O)C(C)NC(=O)C(C)NC(=O)C(CC(C)C)N(C)C(=O)C(C(C)C)NC(=O)C(CC(C)C)N(C)C(=O)CN(C)C1=O [Compound 32A, [2-((2R,3R)-5-(3-(cyclopropylmethoxy)phenylthio)-3-methyltetrahydrofuran-2-yl)-2-(methylamino)acetic acid]^1-cyclosporin A] has an IC50 of 0.001 to 1 µM. For CCC1NC(=O)C(C2OC(Sc3cccc(OCC4CCOCC4)c3)CC2C)N(C)C(=O)C(C(C)C)N(C)C(=O)C(CC(C)C)N(C)C(=O)C(CC(C)C)N(C)C(=O)C(C)NC(=O)C(C)NC(=O)C(CC(C)C)N(C)C(=O)C(C(C)C)NC(=O)C(CC(C)C)N(C)C(=O)CN(C)C1=O [Compound 33A, [2-((2R,3R)-3-methyl-5-(3-((tetrahydro-2H-pyran-4-yl)methoxy)phenylthio)tetrahydrofuran-2-yl)-2-(methylamino)acetic acid]^1-cyclosporin A], the IC50 was 0.001 to 1 µM.

Same assay, conditions: given as a range; assay not given; read-out: IC50
Molecule CC[C@@H]1NC(=O)[C@H]([C@@H]2OC(Sc3cccc(OCc4ccc(F)cc4Cl)c3)C[C@H]2C)N(C)C(=O)[C@H](C(C)C)N(C)C(=O)[C@H](CC(C)C)N(C)C(=O)[C@H](CC(C)C)N(C)C(=O)[C@@H](C)NC(=O)[C@H](C)NC(=O)[C@H](CC(C)C)N(C)C(=O)[C@H](C(C)C)NC(=O)[C@H](CC(C)C)N(C)C(=O)CN(C)C1=O (stereo partly drawn) [Compound 23A, [2-((2R,3R)-5-(3-(2-chloro-4-fluorobenzyloxy)phenylthio)-3-methyltetrahydrofuran-2-yl)-2-(methylamino)acetic acid]^1-cyclosporin A] has an IC50 of 0.001 to 1 µM.
